Laboratory results: PubChem BioAssay (NCI)
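Step 1: Grow cells in 96-well plates. Step 2: Expose to compound for 48 hours at 5 concentrations. Step 3: Interpolate endpoints linearly; if unreached, use highest concentration. TGI is the concentration that stops growth completely.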

Experiments:
Assay in all cases: DTP human tumour cell line panel, 48 h
NCI-H23 lung = system: NCI-H23 lung
HS 578T breast = system: HS 578T breast
SK-MEL-5 melanoma = system: SK-MEL-5 melanoma
MCF7 breast = system: MCF7 breast
SK-OV-3 ovarian = system: SK-OV-3 ovarian
M14 melanoma = system: M14 melanoma
SR leukemia = system: SR leukemia
HL-60(TB) leukemia = system: HL-60(TB) leukemia
CCRF-CEM leukemia = system: CCRF-CEM leukemia
OVCAR-4 ovarian = system: OVCAR-4 ovarian
A498 renal = system: A498 renal
BT-549 breast = system: BT-549 breast
NCI/ADR-RES ovarian = system: NCI/ADR-RES ovarian

| SMILES | TGI (NCI-H23 lung) | TGI (HS 578T breast) | TGI (SK-MEL-5 melanoma) | TGI (MCF7 breast) | TGI (SK-OV-3 ovarian) | TGI (M14 melanoma) | TGI (SR leukemia) | TGI (HL-60(TB) leukemia) | TGI (CCRF-CEM leukemia) | TGI (OVCAR-4 ovarian) | TGI (A498 renal) | TGI (BT-549 breast) | TGI (NCI/ADR-RES ovarian) |
| --- | --- | --- | --- | --- | --- | --- | --- | --- | --- | --- | --- | --- | --- |
| COc1cc(/C=C2\N=C(c3ccccc3)N(c3ccc(S(=O)(=O)Nc4nccs4)cc3)C2=O)ccc1O | > 100 µM | > 100 µM | > 100 µM | > 100 µM | > 100 µM | > 100 µM | > 100 µM | > 100 µM | > 100 µM | > 100 µM | > 100 µM | > 100 µM | > 100 µM |
| CCOC(=O)C(C)c1nc2cc(F)c(N3CCOCC3)cc2[nH]c1=O (stereo not given) | > 100 µM | > 100 µM | > 100 µM | > 100 µM | > 100 µM | > 100 µM | > 100 µM |  | > 100 µM | > 100 µM | > 100 µM | > 100 µM | > 100 µM |
| CCCC[P+](CCCC)(CCCC)C(C(=O)OC)C(C(=O)OC)=C1SC(C(=O)OC)=C(C(=O)OC)S1 (stereo not given) | > 100 µM | > 100 µM | > 100 µM | > 100 µM | > 100 µM | > 100 µM | > 100 µM |  |  | > 100 µM |  | > 100 µM | > 100 µM |
| c1ccc2c(c1)Sc1ccccc1N2CCCN1c2ccccc2Sc2ccccc21 | > 100 µM | > 100 µM | > 100 µM | > 100 µM | > 100 µM | > 100 µM | > 100 µM |  |  | > 100 µM | > 100 µM | > 100 µM | > 100 µM |
| COC(=O)C1=C(O)C(C(=O)OC)[C@]2(O)[C@H](C(=O)OC)[C@H]1C[C@@H](c1ccc(Cl)cc1Cl)[C@H]2C(=O)OC (stereo not given in full) | 19.1 µM | > 100 µM | 16.8 µM | 23 µM | 47.9 µM | 19.1 µM | 19.2 µM | 7.9 µM |  | 67.6 µM | 30.4 µM | 66.6 µM | 38.2 µM |
| N#Cc1c(Cl)cccc1Oc1ccc(S(=O)(=O)/N=C(\NO)Nc2ccc(Cl)cc2)cc1 | 34.6 µM | 71.1 µM | 31 µM | 46.2 µM |  | 29.2 µM | 78.2 µM | 37.8 µM | 43.9 µM | 31.4 µM | 30.6 µM | 30.9 µM | 48 µM |
| O=c1cnn(C/C=C/CP(=O)(O)O)c(=O)[nH]1 | > 100 µM | > 100 µM | > 100 µM | > 100 µM |  | > 100 µM | > 100 µM | > 100 µM |  |  | > 100 µM | > 100 µM | > 100 µM |
| O=c1[nH]nc(Cc2ccccc2)n1N=C1CCCCC1 | > 100 µM | > 100 µM | > 100 µM | > 100 µM |  | > 100 µM |  | > 100 µM | > 100 µM | > 100 µM | > 100 µM | > 100 µM | > 100 µM |
| CCCCCCCCCCCCOCCCCCCCCC/C=C/c1ccc2c(c1)OCCOCCOCCOCCO2 | 30.9 µM | 47.3 µM | 29.7 µM | 32 µM | 34.4 µM | 88.9 µM | 49.1 µM | > 100 µM | > 100 µM | 45.1 µM |  | 40.6 µM | 34.8 µM |
| CN(C(=O)C12C3C4C1C1C2C3C41C(=O)O)C(C)(C)C (stereo not given) | > 100 µM | > 100 µM | > 100 µM | > 100 µM |  | > 100 µM | > 100 µM | > 100 µM | > 100 µM | > 100 µM | > 100 µM | > 100 µM | > 100 µM |
| CC(SC(=S)N1CCCC1)C(=O)Nc1nnc(-c2ccc(Cl)cc2)o1 (stereo not given) | > 100 µM | > 100 µM | 82.8 µM | > 100 µM | > 100 µM | 37.1 µM |  | 0.143 µM |  | > 100 µM | > 100 µM | > 100 µM | > 100 µM |
| c1ccc2nc3c(nc2c1)sc1nc2ccccc2n13 | > 100 µM | > 100 µM | > 100 µM | > 100 µM | > 100 µM | > 100 µM | > 100 µM | > 100 µM | > 100 µM |  | > 100 µM | > 100 µM | > 100 µM |
| Clc1ccccc1-c1nn2c(CCCCCCCCc3nnc4sc(-c5ccccc5Cl)nn34)nnc2s1 | > 100 µM | > 100 µM | > 100 µM | > 100 µM | > 100 µM | > 100 µM | > 100 µM |  | > 100 µM | > 100 µM | > 100 µM | > 100 µM | > 100 µM |
| O=C1c2scc(-c3ccc(F)cc3)c2-n2cccc21 |  | > 100 µM | > 100 µM | > 100 µM | > 100 µM | > 100 µM | 44 µM |  | > 100 µM | > 100 µM | 3.1 µM | 79.7 µM | > 100 µM |
| Cc1ccc(/C(O)=C/c2nc3ccccc3nc2NC23CC4CC(CC(C4)C2)C3)cc1 | > 10 µM | > 10 µM | > 10 µM | > 10 µM | > 10 µM | > 10 µM | > 10 µM | > 10 µM |  | > 10 µM |  | > 10 µM | > 10 µM |
| CN(C)c1ccc(/C=C(\NC(=O)c2ccccc2)c2nc3ccccc3c(=O)o2)cc1 | > 100 µM | > 100 µM | > 100 µM | > 100 µM | > 100 µM | > 100 µM |  | > 100 µM | > 100 µM | > 100 µM | > 100 µM | > 100 µM | > 100 µM |
| CCOC(=O)NC(Nc1cccc(F)c1)(C(F)(F)F)C(F)(F)F | > 100 µM | > 100 µM | > 100 µM | > 100 µM | > 100 µM | > 100 µM | > 100 µM | > 100 µM | > 100 µM |  | > 100 µM | > 100 µM | > 100 µM |
| COC(=O)C1=C(C(=O)OC)C2(c3ccccc3)c3ccccc3C(=O)C1N2C1CCCCC1 (stereo not given) | > 100 µM | > 100 µM | > 100 µM | > 100 µM | > 100 µM | > 100 µM |  | > 100 µM | > 100 µM | > 100 µM | > 100 µM | > 100 µM | > 100 µM |
| COc1ccc(OC)c2sc(N3C(=O)/C(=C/c4ccc(N(C)C)cc4)N=C3c3ccccc3)nc12 |  | > 100 µM | > 100 µM | 63.4 µM | > 100 µM | > 100 µM | 74.6 µM | 64.3 µM | 24.5 µM | > 100 µM | > 100 µM | > 100 µM | > 100 µM |
